Where a name gives a salt, the structure may show the parent alone.
Row | SMILES | melting point [°C]
1 | COc1ccccc1N1CCN(CCC(C(=O)C2CCCCCC2)c2ccccc2)CC1 (centres unmarked) (as salt: hydrochloride) [Example 6, 1-(2-methoxyphenyl)-4-[3-(cycloheptanecarbonyl)-3-(phenyl)propyl]piperazine dihydrochloride] | 193 to 194
2 | COc1ccccc1N1CCN(CCC(C(=O)C2CCCC2)c2ccccc2)CC1 (centres unmarked) (as salt: hydrochloride) [Example 7, 1-(2-methoxyphenyl)-4-[3-(cyclopentanecarbonyl)-3-(phenyl)propyl]piperazine dihydrochloride] | 210 to 212
3 | O=C(C1CCCCC1)C(CCN1CCN(c2ccccn2)CC1)c1ccccc1.O=C(O)C(=O)O (centres unmarked) [Example 3, 1-(2-pyridyl)-4-[3-(cyclohexanecarbonyl)-3-(phenyl)propyl]piperazine oxalate] | 185 to 187
4 | COc1ccccc1N1CCN(CCC(c2ccccc2)C(O)C2CCCCC2)CC1.O=C(O)C(=O)O (centres unmarked) [Example 8, 1-(2-methoxyphenyl)-4-[4-(cyclohexyl)-4-(hydroxy)-3-(phenyl)butyl]piperazine oxalate] | 100 to 102

Next, values leading:

Row | melting point [°C] | SMILES
5 | 161 to 163 | COc1ccccc1N1CCN(CCC(C(=O)c2ccccc2)c2ccccc2)CC1.O=C(O)C(=O)O (centres unmarked) [Example 1, 1-(2-methoxyphenyl)-4-[3-(benzoyl)-3-(phenyl)propyl]piperazine Oxalate]
6 | 149 to 151 | COc1ccccc1N1CCN(CCC(C(=O)C2CCCCC2)c2ccccc2)CC1.O=C(O)C(=O)O (centres unmarked) [Example 2, 1-(2-methoxyphenyl)-4-[3-(cyclohexanecarbonyl)-3-(phenyl)propyl]piperazine oxalate]
7 | 192 to 193 | COc1ccccc1N1CCN(CCC(C)(C(=O)c2ccccc2)c2ccccc2)CC1.O=C(O)C(=O)O (centres unmarked) [Example 5, 1-(2-methoxyphenyl)-4-[3-(benzoyl)-3-(phenyl)butyl]piperazine oxalate]
8 | 192.81 | COc1ccccc1N1CCN(CCC(C)(C(=O)C2CCCCC2)c2ccccc2)CC1 (centres unmarked) [Example 9, 1-(2-methoxyphenyl)-4-[3-(cyclohexanecarbonyl)-3-(phenyl)butyl]piperazine]
